Measured values taken from US9333188B2, “Composition and method for improving survival of bee colonies” (Science in Water B.V., priority 2012, dated 2016).

Tested on: bees
Assay: Beekeeper field trial: winter survival of bee hives after feeding
Format: in vivo
Settings: populations given only iron(II) fumarate
Method: In a trial, a number or beekeepers (16) used a solution of vinasse containing dissolved iron(II) fumarate with the goal of reducing instances of winter mortality and CCD. This solution was mixed with 100-200 ml of sugar syrup. The solution thus obtained was administered to bees with their feed. The quantities and results were as follows: A total of approximately 1,000 mg of iron(II) fumarate, or 333 mg Fe (i.e. 5.8 millimoles iron(II)) was administered per 5 kg of bees. This quantity was administered in small portions. The initial moments of the series administrations ranged from 5 August 2011 to 15 September 2011. The administration frequencies ranged from one time per week to one time per 3 days. If administration was started late in the season, administration was one time per 3 days to ensure that a consistent total amount of iron(II) fumarate was administered across the test populations. […] In a control populations given only pure vinasse the queens were dead within 14 days; these populations were then not viable and after the death of the queen, remaining bees in the population were merged with another population. In one case, the total amount of iron(II) fumarate and vinasse was added to 15 kg of sugar syrup. This emulsion was administered as a winter sugar, until the mixture was consumed. […]

O=C([O-])/C=C/C(=O)[O-].[Fe+2] [iron(II) fumarate] was tested, and the “winter survival of control populations” value was “survived the winter, but in a very weak state”.
